Measured values as given in ChEMBL document CHEMBL5614460, “Discovery of novel substituted pyridine carboxamide derivatives as potent allosteric SHP2 inhibitors” (Eur J Med Chem, 2024).

Tested on: MV4-11
Assay: Antiproliferative activity against human MV4-11 cells assessed as inhibition of cell proliferation incubated for 72 hrs by CCK-8 assay
Assay type: functional, cell-based
Conditions: Homo sapiens, MV4-11, 72 h

Row | SMILES | IC50 [nM]
1 | C[C@@H]1OCC2(CCN(c3cnc(Sc4cccc(NC(=O)c5cnccc5O)c4Cl)cn3)CC2)[C@@H]1N | 16.6
2 | C[C@@H]1OCC2(CCN(c3cnc(Sc4cccc(NC(=O)c5cccnc5O)c4Cl)cn3)CC2)[C@@H]1N | 45.5

Molecular target: T1, Tyrosine-protein phosphatase non-receptor type 11 (Homo sapiens, UniProt Q06124)
T1 sequence (Q06124 whole entry): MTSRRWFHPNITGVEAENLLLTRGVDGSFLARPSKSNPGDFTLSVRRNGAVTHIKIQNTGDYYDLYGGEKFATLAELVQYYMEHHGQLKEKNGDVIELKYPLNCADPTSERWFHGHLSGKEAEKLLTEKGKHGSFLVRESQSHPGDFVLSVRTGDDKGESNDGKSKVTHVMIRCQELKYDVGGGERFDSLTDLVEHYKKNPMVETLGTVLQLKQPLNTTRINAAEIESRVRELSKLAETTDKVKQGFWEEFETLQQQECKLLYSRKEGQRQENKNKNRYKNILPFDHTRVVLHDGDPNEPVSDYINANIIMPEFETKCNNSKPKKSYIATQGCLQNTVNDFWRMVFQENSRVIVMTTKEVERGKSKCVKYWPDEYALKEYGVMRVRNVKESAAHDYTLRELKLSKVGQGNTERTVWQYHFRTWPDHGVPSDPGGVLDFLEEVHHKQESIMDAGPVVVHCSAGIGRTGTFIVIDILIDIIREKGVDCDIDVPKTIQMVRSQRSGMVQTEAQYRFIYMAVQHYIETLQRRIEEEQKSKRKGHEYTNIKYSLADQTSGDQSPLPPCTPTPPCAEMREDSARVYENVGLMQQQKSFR
Assay: (§1) Allosteric inhibition of N-terminal His-tagged human recombinant SHP2 extracted from Escherichia coli using DiFMUP as substrate preincubated with compound for 60 mins followed by substrate addition and measured after 30 mins by fluorescence based microplate reader analysis
Conditions: not given

Row | SMILES | IC50 [nM]
3 | CC1(N)CCN(c2cnc(Sc3cccc(NC(=O)c4cc(Cl)ccn4)c3Cl)cn2)CC1 | 219
4 | CC1(N)CCN(c2cnc(Sc3cccc(NC(=O)c4cnccc4Cl)c3Cl)cn2)CC1 | 128
5 | CC1(N)CCN(c2cnc(Sc3cccc(NC(=O)c4cccc5ccccc45)c3Cl)cn2)CC1 | 332
6 | CC1(N)CCN(c2cnc(Sc3cccc(NC(=O)c4cccc(Cl)n4)c3Cl)cn2)CC1 | 175
7 | CC1(N)CCN(c2cnc(Sc3cccc(NC(=O)c4cccs4)c3Cl)cn2)CC1 | 119
8 | CC1(N)CCN(c2cnc(Sc3cccc(NC(=O)c4cnccn4)c3Cl)cn2)CC1 | 77
9 | CC1(N)CCN(c2cnc(Sc3cccc(NC(=O)Cc4ccccc4)c3Cl)cn2)CC1 | 49.8
10 | C[C@@H]1OCC2(CCN(c3cnc(Sc4cccc(NC(=O)c5ncccc5O)c4Cl)cn3)CC2)[C@@H]1N | 0.59
11 | N[C@@H]1c2ccccc2CC12CCN(c1cnc(Sc3cccc(NC(=O)c4cccnc4O)c3Cl)cn1)CC2 | 1.87
12 | Nc1nc(N2CCN(C(=O)C3(N)CCCC3)CC2)cnc1Sc1ccnc(N)c1Cl | 530
13 | C[C@@H]1OCC2(CCN(c3cnc(Sc4cccc(NC(=O)c5ncccc5Cl)c4Cl)cn3)CC2)[C@@H]1N | 1.03
14 | CC1(N)CCN(c2cnc(Sc3cccc(NC(=O)c4ncccc4O)c3Cl)cn2)CC1 | 6.6
15 | CC1(N)CCN(c2cnc(Sc3cccc(NC(=O)C4CCCCC4)c3Cl)cn2)CC1 | 174
16 | CC1(N)CCN(c2cnc(Sc3cccc(NC(=O)c4ccccc4)c3Cl)cn2)CC1 | 67.8
17 | CC1(N)CCN(c2cnc(Sc3cccc(NC(=O)c4ncccc4C(F)(F)F)c3Cl)cn2)CC1 | 88.6
18 | CC1(N)CCN(c2cnc(Sc3cccc(NC(=O)c4ccccn4)c3Cl)cn2)CC1 | 29.4
19 | CC1(N)CCN(c2cnc(Sc3cccc(NC(=O)c4ncccc4F)c3Cl)cn2)CC1 | 32.3
20 | N[C@@H]1c2ccccc2CC12CCN(c1cnc(Sc3cccc(NC(=O)c4ncccc4Cl)c3Cl)cn1)CC2 | 1.08

Row | SMILES | IC50 [nM]
21 | C[C@@H]1OCC2(CCN(c3cnc(Sc4cccc(NC(=O)c5cnccc5O)c4Cl)cn3)CC2)[C@@H]1N | 0.17
22 | CC1(N)CCN(c2cnc(Sc3cccc(NC(=O)c4cccnc4O)c3Cl)cn2)CC1 | 11.3
23 | CC1(N)CCN(c2cnc(Sc3cccc(NC(=O)/C=C/c4ccccc4)c3Cl)cn2)CC1 | 39.6
24 | CC1(N)CCN(c2cnc(Sc3cccc(NC(=O)c4ccc(Cl)cn4)c3Cl)cn2)CC1 | 218
25 | CC1(N)CCN(c2cnc(Sc3cccc(NC(=O)c4ccncc4Cl)c3Cl)cn2)CC1 | 147
26 | CC1(N)CCN(c2cnc(Sc3cccc(NC(=O)c4ncccc4Br)c3Cl)cn2)CC1 | 52.8
27 | CC1(N)CCN(c2cnc(Sc3cccc(NC(=O)c4ncccc4Cl)c3Cl)cn2)CC1 | 1.7
28 | Cc1cccnc1C(=O)Nc1cccc(Sc2cnc(N3CCC(C)(N)CC3)cn2)c1Cl | 89.1
29 | CC1(N)CCN(c2cnc(Sc3cccc(NC(=O)c4ccco4)c3Cl)cn2)CC1 | 113
30 | N[C@@H]1c2ccccc2CC12CCN(c1cnc(Sc3cccc(NC(=O)c4ncccc4O)c3Cl)cn1)CC2 | 0.6
31 | CC1(N)CCN(c2cnc(Sc3cccc(NC(=O)c4ncccn4)c3Cl)cn2)CC1 | 30.1
32 | CC1(N)CCN(c2cnc(Sc3cccc(NC(=O)c4nccs4)c3Cl)cn2)CC1 | 51.9
33 | CC1(N)CCN(c2cnc(Sc3cccc(N)c3Cl)cn2)CC1 | 36.2
34 | CC1(N)CCN(c2cnc(Sc3cccc(NC(=O)c4cnccc4O)c3Cl)cn2)CC1 | 6.4
35 | CC1(N)CCN(c2cnc(Sc3cccc(NC(=O)c4cccnc4Cl)c3Cl)cn2)CC1 | 365
36 | CC1(N)CCN(c2cnc(Sc3ccc(NC(=O)c4ccccc4)cc3Cl)cn2)CC1 | 296
37 | C[C@@H]1OCC2(CCN(c3cnc(Sc4cccc(NC(=O)c5cccnc5O)c4Cl)cn3)CC2)[C@@H]1N | 0.13

Molecular target: T2, Tyrosine-protein phosphatase non-receptor type 11 (Homo sapiens) (UniProt Q06124)
T2 sequence (whole entry): T1 sequence (Q06124 whole entry)
Assay: as §1, with “as substrate at 10 uM preincubated with” for “as substrate preincubated with”, “reader analysis relative to control” for “reader analysis”
Conditions: time 90.0 min

Row | SMILES | inhibition [%]
38 | Nc1nc(N2CCN(C(=O)[C@@H]3CCCN3)CC2)cnc1Sc1ccnc(N)c1Cl | 48.8
39 | NCC(=O)N1CCN(c2cnc(Sc3ccnc(N)c3Cl)c(N)n2)CC1 | 58.8
40 | Nc1nc(N2CCN(C(=O)C3(N)CCCC3)CC2)cnc1Sc1ccnc(N)c1Cl | 95.2
41 | C[C@H](N)C(=O)N1CCN(c2cnc(Sc3ccnc(N)c3Cl)c(N)n2)CC1 | 13.2
42 | C[C@@H](N)C(=O)N1CCN(c2cnc(Sc3ccnc(N)c3Cl)c(N)n2)CC1 | 43.8
43 | Nc1nc(N2CCN(C(=O)C3(N)CCC3)CC2)cnc1Sc1ccnc(N)c1Cl | 44.2
44 | Nc1nc(N2CCN(C(=O)C3(N)CCCCC3)CC2)cnc1Sc1ccnc(N)c1Cl | 14.3
45 | Nc1nc(N2CCN(C(=O)[C@H]3CCCN3)CC2)cnc1Sc1ccnc(N)c1Cl | 50.2
